According to the NIST ThermoML archive (doi:10.1021/acs.jced.8b00930):
± gives the expanded uncertainty stated by the source.

Settings: Liquid, Capillary tube (Ostwald / Ubbelohde) method

CCCCCCCCCCCCCCCC [hexadecane]
Settings | viscosity [mPa·s]
322.7 K, 1940 kPa | 1.885 ± 0.066
323.7 K, 970 kPa | 1.857 ± 0.063
323.7 K, 3000 kPa | 1.904 ± 0.065
323.8 K, 1980 kPa | 1.878 ± 0.066
323.8 K, 3910 kPa | 1.925 ± 0.066
372.7 K, 990 kPa | 0.909 ± 0.031
372.7 K, 1960 kPa | 0.922 ± 0.083
372.8 K, 2970 kPa | 0.929 ± 0.031
372.8 K, 3950 kPa | 0.947 ± 0.15
373.9 K, 980 kPa | 0.896 ± 0.031
373.9 K, 2000 kPa | 0.909 ± 0.083
373.9 K, 2980 kPa | 0.915 ± 0.031
373.9 K, 3900 kPa | 0.936 ± 0.17
422.9 K, 1990 kPa | 0.554 ± 0.019
422.9 K, 2970 kPa | 0.557 ± 0.019
422.9 K, 3840 kPa | 0.568 ± 0.02
471.9 K, 1000 kPa | 0.358 ± 0.013
472 K, 2010 kPa | 0.363 ± 0.012
472.1 K, 2910 kPa | 0.371 ± 0.013
472.1 K, 3870 kPa | 0.374 ± 0.015
473.7 K, 3990 kPa | 0.375 ± 0.02
521.9 K, 970 kPa | 0.245 ± 0.008
521.9 K, 1960 kPa | 0.254 ± 0.009
521.9 K, 2950 kPa | 0.26 ± 0.009
522 K, 3830 kPa | 0.267 ± 0.009
572.1 K, 2930 kPa | 0.192 ± 0.007
572.2 K, 2000 kPa | 0.187 ± 0.006
572.2 K, 3850 kPa | 0.196 ± 0.007
621.9 K, 2010 kPa | 0.131 ± 0.005
622 K, 2890 kPa | 0.137 ± 0.005
622.1 K, 3820 kPa | 0.142 ± 0.005
623.2 K, 3990 kPa | 0.143 ± 0.005
672.6 K, 3990 kPa | 0.104 ± 0.004
673.2 K, 2000 kPa | 0.091 ± 0.003
673.6 K, 3000 kPa | 0.097 ± 0.003
